The METLIN SMRT retention time set (Domingo-Almenara et al. 2019)

Experiment: gradient 5% acetonitrile 3 min, to 50% in 2 min, to 85% in 15 min, held 3 min, 100 µL/min
Conditions: column: Zorbax Extend-C18 2.1 x 50 mm; eluents: water / acetonitrile, 0.1% formic acid
Outline: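 Over 3 months, pure standards in mixtures of ~100 molecules were run by HPLC coupled to a quadrupole time-of-flight mass spectrometer in positive and negative ionization mode. The column was a Zorbax Extend-C18 (2.1 × 50 mm, 1.8 μm) at 100 μL/min, eluted with water and acetonitrile each holding 0.1% formic acid, with 40 μL dead and 900 μL dwell volumes. Retention time was determined from adduct peaks chosen by software and checked manually.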
For CC[C@H](C)Nc1c(C(=O)OC)c(=O)[nH]c2c(Cl)cccc12, the RP-LC retention time was 783 s.
Work on CCOc1ccc(NC(=O)CSc2cc(N3CCN(c4ccc(OC)cc4)CC3)ncn2)cc1 yielded an RP-LC retention time of 1160 s.
CCC(C(=O)NCCCN1CCOCC1)n1c2ccccc2c2cnn(C)c(=O)c21 (stereo not given) gave an RP-LC retention time of 609 s.
CCc1cccc(NC(=O)N2C[C@@H](F)C[C@H]2C(=O)N2CCc3ccccc3C2)c1 gave an RP-LC retention time of 887 s.
In the case of CCOC(=O)C1=C(C)N(CC(=O)NCC2CCCO2)c2ncnn2C1c1ccccc1 (stereo not given), the RP-LC retention time was 747 s.
In the case of O=C(C1=CN(c2cccc(F)c2)c2cc(Cl)ccc2S1(=O)=O)N1CCOCC1, the RP-LC retention time was 825 s.
With NC(=O)CSc1nnc(N2CCN(C(=O)c3cc4ccccc4o3)CC2)s1 the RP-LC retention time was 635 s.
Compound CCOc1ccccc1NC(=O)Cn1nc(N2CCSCC2)c2ccccc2c1=O has an RP-LC retention time of 929 s.
For Cc1ccc(Nc2c(-c3cccc(Cl)c3)nc3ccc(C)cn23)cc1, the RP-LC retention time was 804 s.
In the case of O=C(C1CCN(S(=O)(=O)c2cc(-c3noc(C4CC4)n3)cs2)CC1)N1CCCC1, the RP-LC retention time was 829 s.
With CCOC(=O)c1oc2ccc(S(=O)(=O)NCC3Cn4cccc4C(=O)N3C)cc2c1C (stereo not given) the RP-LC retention time was 810 s.
CCOc1ccccc1-c1noc(-c2nc(C)no2)n1 showed an RP-LC retention time of 986 s.
Compound O=S(=O)(c1ccccc1F)N1CCC2(CCN(c3cccnc3)C2)C1 (stereo not given) has an RP-LC retention time of 644 s.
Compound CC(C)C(=O)N1CCC2(CC1)NCc1ccccc1-n1ccnc12 has an RP-LC retention time of 574 s.
Work on CN1C(=O)COc2cc(-c3noc(C(=O)NCCc4ccc(S(N)(=O)=O)cc4)n3)ccc21 yielded an RP-LC retention time of 721 s.
Fc1ccc(CN2CCCCC2c2nncn2CC2CC2)cc1F (stereo not given) showed an RP-LC retention time of 619 s.
CSc1cccc(NC(=O)Nc2c(-c3ccncc3)nc3ccccn23)c1 showed an RP-LC retention time of 623 s.
Compound Cc1ccccc1-c1nc2ccccc2n1CC(N)=O has an RP-LC retention time of 616 s.
Compound COc1ccc(F)cc1S(=O)(=O)NCC1(C)CCOCC1 has an RP-LC retention time of 785 s.
COc1cc(C(=O)N2CCC(C(=O)NCCc3cscn3)CC2)cc(OC)c1OC gave an RP-LC retention time of 631 s.
With COCCCNC(=O)c1cc(-c2ccc(OC)cc2)nc2n[nH]c(-c3ccccc3)c12 the RP-LC retention time was 789 s.
For CCOc1ccc(NC(=O)C2CCN(c3cc(N4CCSCC4)ncn3)CC2)cc1, the RP-LC retention time was 693 s.
CCCC1c2nccn2CCCN1C(=O)c1c(C)noc1C (stereo not given) gave an RP-LC retention time of 576 s.
NC(=O)c1cc(-c2ccc(F)cc2)n[nH]1 showed an RP-LC retention time of 645 s.
With Cc1sc2ncnc(N3CCCC(C)C3)c2c1C(=O)Nc1cc(F)ccc1F (stereo not given) the RP-LC retention time was 1220 s.
Compound COC(=O)c1cc2c(=O)n(-c3ccc(Cl)c(C(F)(F)F)c3)ccc2nc1C has an RP-LC retention time of 992 s.
Work on COC(=O)c1c(NCc2ccccc2OC)c2cccc(Cl)c2[nH]c1=O yielded an RP-LC retention time of 820 s.
For CCOC(=O)c1c(C)[nH]c(C(=O)N2CCCC(C(=O)NC3CCCC3)C2)c1C (stereo not given), the RP-LC retention time was 759 s.
Compound O=C(NCc1ccco1)c1ccc2c(c1)N(Cc1ccccc1)C(=O)CO2 has an RP-LC retention time of 942 s.
Cc1ccc(C)c(CNC(=O)c2nnc(-c3ccc(S(=O)(=O)N(C)C)cc3)o2)c1 showed an RP-LC retention time of 950 s.
Compound C=C1C[C@H]2[C@@H]3CCC4=CC(=O)CC[C@@H]4[C@H]3CC[C@]2(C)[C@@]1(OC(C)=O)C(C)=O has an RP-LC retention time of 1160 s.
Cc1cc(C)c(S(=O)(=O)N2CCc3c(c(-c4nnc(-c5ccccc5)o4)nn3C)C2)c(C)c1 showed an RP-LC retention time of 1090 s.
With CCN(CC)c1ncc2c(n1)CCC(C(=O)Nc1ccc(N3CCOCC3)cc1)C2 (stereo not given) the RP-LC retention time was 641 s.
In the case of O=C(NCC1CCN(c2ncccn2)CC1)C(=O)NCC(F)(F)F, the RP-LC retention time was 626 s.
For COC(=O)N[C@@H](C)CNc1nccc(-c2cn(C(C)C)nc2-c2cc(Cl)cc(NS(C)(=O)=O)c2F)n1, the RP-LC retention time was 792 s.
With CCOCCOC1CCN(C(=O)c2cccs2)CC1 the RP-LC retention time was 725 s.
In the case of COCCO[C@H]1C(=O)N(C2CCN(S(C)(=O)=O)CC2)[C@H]1c1ccncc1, the RP-LC retention time was 543 s.
For CCc1ccc(CNC(=O)C2CCCN(c3nc4c(s3)c(C)nn4-c3ccc(F)cc3)C2)cc1 (stereo not given), the RP-LC retention time was 1240 s.
In the case of CCCn1cc(CCNS(=O)(=O)c2ccc(Cl)cc2)c2cccnc21, the RP-LC retention time was 891 s.
Cc1cc2nn(CC(=O)Nc3cccc(C)c3C)c(=O)n2c(-c2ccc(F)cc2)n1 showed an RP-LC retention time of 849 s.
In the case of O=C1N(c2cccc(F)c2)c2ncccc2S(=O)(=O)N1Cc1ccc(F)cc1, the RP-LC retention time was 1040 s.
Work on CCN(CCN(C)C)C(=O)c1cc2c(s1)-c1ccc(Cl)cc1S(=O)(=O)C2 yielded an RP-LC retention time of 660 s.
O=C(Cc1cccs1)NCCS(=O)(=O)N1CCc2ccccc2C1 showed an RP-LC retention time of 764 s.
O=C(CCCc1c[nH]c2ccccc12)NC1CCN(c2ccc(=O)[nH]n2)C1 (stereo not given) showed an RP-LC retention time of 640 s.
Work on CCOC(=O)c1c(C)c(CCC(=O)N2CCN(c3ccccn3)CC2)c(C)n1C yielded an RP-LC retention time of 646 s.
Cc1cccc(Sc2nccnc2N2CCC(C(=O)N3CCCCCC3)CC2)c1 gave an RP-LC retention time of 1130 s.
Work on COc1ccc(Cl)cc1NC(=O)C1(c2ccccc2)CCOCC1 yielded an RP-LC retention time of 1010 s.
Compound CC1CCN(c2nc(C(=O)NCc3ccccn3)nc3c2cnn3C)CC1 has an RP-LC retention time of 660 s.
Work on CCOc1cccc(-c2noc(CCn3nc(-c4ccc5c(c4)OCO5)ccc3=O)n2)c1 yielded an RP-LC retention time of 978 s.
Work on COc1nn(C)cc1C(=O)NCC(O)c1ccc(C(F)(F)F)cc1 (stereo not given) yielded an RP-LC retention time of 669 s.
Cc1ccccc1-n1ccn(Cc2nc(-c3ccc(Cl)c(F)c3)no2)c(=O)c1=O gave an RP-LC retention time of 679 s.
Work on CC(NC(=O)c1ccccc1)c1nc(-c2ccc3nnn(C)c3c2)no1 (stereo not given) yielded an RP-LC retention time of 641 s.
With Cn1ncc2c3ccccc3n(CCCC(=O)NCCc3c[nH]c4ccccc34)c2c1=O the RP-LC retention time was 815 s.
Compound O=C(CCC1CCN(S(=O)(=O)c2ccccc2)CC1)N1CCOCC1 has an RP-LC retention time of 741 s.
In the case of COCc1nncn1C1CN(C(=O)Cc2ccc(Cl)cc2)C1, the RP-LC retention time was 642 s.
CCC(C)n1c(C)cc(=O)n1C(C)CC (stereo not given) showed an RP-LC retention time of 759 s.
Cc1ccc(F)cc1NS(=O)(=O)c1cc(-c2[nH]ncc2C(=O)N(C)C)oc1C showed an RP-LC retention time of 706 s.
COc1ccc(NC(=O)Nc2c(-c3ccccc3)nc3ccccn23)cc1OC showed an RP-LC retention time of 612 s.
With CC1CCCN(CC2CCN(S(=O)(=O)c3ccc(C#N)cc3)CC2)C1 (stereo not given) the RP-LC retention time was 644 s.
Work on CCCCN(C)C(=O)c1sc(Nc2ccccn2)nc1C yielded an RP-LC retention time of 777 s.
CNC(=O)CCc1nc2ccccc2n(CC(=O)NCc2ccc(F)cc2)c1=O gave an RP-LC retention time of 666 s.
Compound CCC(=O)n1nc(C)c(S(=O)(=O)N2CCCCC2)c1C has an RP-LC retention time of 1040 s.
For O=C(Nc1ccccc1[N+](=O)[O-])C(=O)N1CCN(Cc2ccc3c(c2)OCO3)CC1, the RP-LC retention time was 592 s.
For COc1cccc(OCC2c3ccsc3CCN2C(=O)CN(CC2CCCO2)C(C)=O)c1 (stereo not given), the RP-LC retention time was 788 s.
Compound COCCC(=O)N1CC(F)(F)C[C@H]1c1nc(C2CC2)no1 has an RP-LC retention time of 713 s.
With N#Cc1ccc(S(=O)(=O)N2CCOCCNC(=O)[C@H]3CCCC[C@H]32)cc1 the RP-LC retention time was 747 s.
CCOC(=O)c1cc(S(=O)(=O)N2CCN(c3ccccn3)CC2)[nH]n1 gave an RP-LC retention time of 598 s.
COc1ccc(-c2nc(Cn3ccn4nc(-c5ccccc5)cc4c3=O)c(C)o2)c(OC)c1 showed an RP-LC retention time of 1030 s.
In the case of CC1CCCN(Cc2nc(-c3ccc(N(C)Cc4ccccc4)nc3)no2)C1 (stereo not given), the RP-LC retention time was 734 s.
Compound CCOc1cccc(CNS(=O)(=O)c2cc(-c3nc(C(C)(C)C)cs3)cs2)c1 has an RP-LC retention time of 1270 s.
Work on O=C(NC1CCCC1)C1CCCN(c2nccn3nc(-c4ccccc4Cl)cc23)C1 (stereo not given) yielded an RP-LC retention time of 915 s.
In the case of CCN(C(=O)CC(=O)OC)c1nc(-c2ccc(C)cc2)cs1, the RP-LC retention time was 1070 s.
In the case of Cc1cc2c(c(=O)n(-c3ccccc3)c(=O)n2CC(=O)Nc2ccccc2F)n1C, the RP-LC retention time was 803 s.
With Cc1oc2c(c1C(=O)NCc1cccc(Br)c1)C1=NCCN1C=N2 the RP-LC retention time was 654 s.
CCc1cccc(N2C(=O)CN(S(C)(=O)=O)CC2(C)C(=O)NCc2ccc(Cl)cc2)c1 (stereo not given) gave an RP-LC retention time of 903 s.
Compound Cc1ccc(C)c(NC(=O)c2cc(C)nn2-c2ccccc2)c1 has an RP-LC retention time of 916 s.
COc1ccc2[nH]c(=O)c(CCC(=O)NCCN3CCc4ccccc4C3)cc2c1 gave an RP-LC retention time of 623 s.
Cc1cccc(NC(=O)Cc2cn(C)c3ncccc23)c1 showed an RP-LC retention time of 722 s.
For CCCCC(=O)Nc1ccc2nc(N3CCN(C)CC3)cc(C(=O)O)c2c1, the RP-LC retention time was 571 s.
CCN(c1ccccc1F)S(=O)(=O)c1cc2n(c1)CCCN(C)C2=O showed an RP-LC retention time of 780 s.
With CCn1c(=O)c(=O)n(CC(=O)NCCN2CCCC2)c2cccnc21 the RP-LC retention time was 559 s.
In the case of CCC(=O)Nc1nc(-c2ccc3c(c2)N(C)C(=O)C(C)O3)cs1 (stereo not given), the RP-LC retention time was 801 s.
Cc1nc(-c2ccc(N3CCN(C(=O)c4cc(Cl)ccc4F)CC3)nc2)sc1C showed an RP-LC retention time of 990 s.
CCN1C(=O)c2cc(S(=O)(=O)Nc3ccc(F)c(C)c3)ccc2Oc2cccnc21 showed an RP-LC retention time of 1060 s.
COc1ccc(-c2noc(C3CC(=O)N(c4ccc5c(c4)OCCO5)C3)n2)cc1 (stereo not given) showed an RP-LC retention time of 897 s.
CCCN(CCC)CCCNC(=O)C1CCCN(c2ncc(-c3ccc(F)cc3)cn2)C1 (stereo not given) gave an RP-LC retention time of 749 s.
O=C(CCn1ccnc1)N1CCC2(CCC(=O)N(CC3CC3)CC2)CC1 gave an RP-LC retention time of 577 s.
For COC(=O)C1=CN(c2ccc(F)cc2)c2cc(Br)ccc2S1(=O)=O, the RP-LC retention time was 963 s.
Work on COc1cccc(CNC2=NCCNC23CCN(S(=O)(=O)c2c(C)cc(C)cc2C)CC3)c1 yielded an RP-LC retention time of 826 s.
Work on Cc1cc(OCC(=O)NCc2cccs2)nc(-c2ccc(Cl)cc2)n1 yielded an RP-LC retention time of 1050 s.
